Experimental data: patent US8278316B2, “Aza pyridone analogs useful as melanin concentrating hormone receptor-1 antagonists” (Bristol-Myers Squibb Company, priority 2009, dated 2012)
pKi: −log10 of the molar value.

target: T1, human melanin concentrating hormone receptor (MCHR1) (Homo sapiens, UniProt Q99705, A5T/E4Q); test: Radioligand binding assay for assessment of MCHR1 activity; conditions: membranes from HEK-293 cells expressing mutated (E4Q, AST) hMCHR1; competition with 0.06-0.1 nM [Phe13,[125I]Tyr19]-MCH, 90 min
T1 construct: expressed in transfected cells; host or cells: HEK-293 (stably transfected), membranes
T1 sequence (Q99705 whole entry E4Q/A5T): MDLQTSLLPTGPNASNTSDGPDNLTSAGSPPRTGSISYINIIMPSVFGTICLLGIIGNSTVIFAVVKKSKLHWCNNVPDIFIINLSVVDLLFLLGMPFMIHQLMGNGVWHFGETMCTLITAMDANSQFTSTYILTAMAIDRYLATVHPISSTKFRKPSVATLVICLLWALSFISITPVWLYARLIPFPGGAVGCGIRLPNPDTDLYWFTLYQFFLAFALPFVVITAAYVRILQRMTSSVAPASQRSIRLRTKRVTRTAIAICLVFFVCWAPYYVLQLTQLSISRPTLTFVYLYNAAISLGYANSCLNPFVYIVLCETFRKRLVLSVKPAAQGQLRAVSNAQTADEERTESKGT
Method: Compounds of Formula I were initially characterized in an in vitro binding assay to determine their Ki or ability to antagonize binding of a peptide agonist to the human melanin concentrating hormone receptor (MCHR1).
Membranes from stably transfected HEK-293 cells expressing a mutated (E4Q, AST) hMCHR1 receptor were prepared by dounce homogenization and differential centrifugation. Binding experiments were carried out with 0.5-1.0 ug of membrane protein incubated in a total of 0.2 ml in 25 mM HEPES (pH 7.4) with 10 mM MgCl2, 2 mM EGTA, and 0.1% BSA (Binding Buffer) for 90 min. For competition binding assays, reactions were carried out in the presence of with 0.06-0.1 nM [Phe^13, [^125I]Tyr^19]-MCH and increasing concentrations of unlabeled test molecules. Reactions were terminated by rapid vacuum filtration over 96 well-GFC Unifilter plates pre-coated with 0.075 ml binding buffer containing 1% BSA, and washed 3 times with 0.4 ml of Phospho-buffered Saline (pH 7.4) containing 0.01% TX-100. Filters were dried; 0.05 ml microscint 20 was added to each well and radioactivity was subsequently quantified by scintillation counting on a TOPCOUNT® microplate scintillation counter (Packard). Inhibitory constants were determined by nonlinear least squares analysis using a four parameter logistic equation.

Compound | pKi
COc1cc(-n2ccc(SCc3ccc(Cl)cc3)nc2=O)ccc1OCC(C)(C)O [Example A1, 4-(4-Chlorobenzylthio)-1-(4-(2-hydroxy-2-methylpropoxy)-3-methoxyphenyl)pyrimidin-2(1H)-one] | 7.39
COc1cc(-n2ccc(OCc3ccc(Cl)c(Cl)c3)nc2=O)ccc1OCC(C)(C)O [Example A13] | 5.94
Cc1cc(-n2ccc(NCc3ccc(Cl)cc3)nc2=O)ccc1OCC(C)(C)O [Example A17] | 6.34
COc1cc(-n2ccc(C#Cc3ccccc3)nc2=O)ccc1OCC(C)(C)O [Example B1, 1-(4-(2-Hydroxy-2-methylpropoxy)-3-methoxyphenyl)-4-(phenylethynyl)pyrimidin-2(1H)-one] | 7.41
COc1cc(-n2ccc(COc3ccccc3F)nc2=O)ccc1OCC(C)(C)O [Example C5] | 5.66
COc1cc(-n2ncc(C#Cc3ccccc3)cc2=O)ccc1OCC(O)C1CC1 (stereo not drawn) [Example D2] | 7.43
COc1cc(-n2ncc(CSc3ccc(Cl)cc3)cc2=O)ccc1OCC(C)(C)O [Example E1, 5-((4-Chlorophenylthio)methyl)-2-(4-(2-hydroxy-2-methylpropoxy)-3-methoxyphenyl)pyridazin-3(2H)-one] | 5.97
COc1cc(-n2cnc(CSc3ccc(F)cc3)cc2=O)ccc1OCC(C)(C)O [Example G3] | 6.42
COc1cc(-n2cnc(OCc3ccc(Cl)cc3)cc2=O)ccc1OCC(C)(C)O [Example H1, 6-(4-Chlorobenzyloxy)-3-(4-(2-hydroxy-2-methylpropoxy)-3-methoxyphenyl)pyrimidin-4(3H)-one] | 7.46
COc1cc(-n2cnc(SCc3ccc(Cl)cc3)cc2=O)ccc1OCC(C)(C)O [Example H2] | 8.15
COc1cc(-n2cnc(SCc3ccc(Cl)cc3)cc2=O)ccc1OCC(O)C1CC1 (stereo not drawn) [Example H6] | 7.96
COc1cc(-n2cnc(/C=C/c3ccc(Cl)cc3)cc2=O)ccc1OCC(C)(C)O [Example J1, (E)-6-(4-Chlorostyryl)-3-(4-(2-hydroxy-2-methylpropoxy)-3-methoxyphenyl)pyrimidin-4(3H)-one] | 7.64
